Data from patent publication US8940766B2, “Methods for preventing and/or treating lysosomal storage disorders” (Amicus Therapeutics, Inc., priority 2009, dated 2015).
“And” between values parts separate entries of the source, which are not always exact repeats. Equal values may be shown once. Blank lines part the entries; values can stand above or below the molecule they belong to.

Columns and labels:
lysosomal GCase = target: T1, lysosomal GCase (Homo sapiens, UniProt P04062); assay: In situ washout assay in fibroblasts (recovery of lysosomal GCase activity after compound removal); format: cell-based; details: fibroblasts treated at IC90 for 16-24 hours, then drug-free medium; single exponential fit
T1 construct: assayed in situ using fibroblasts established from a normal subject; endogenous in cells; host or cells: fibroblasts from a normal subject
T1 sequence (P04062 40-536): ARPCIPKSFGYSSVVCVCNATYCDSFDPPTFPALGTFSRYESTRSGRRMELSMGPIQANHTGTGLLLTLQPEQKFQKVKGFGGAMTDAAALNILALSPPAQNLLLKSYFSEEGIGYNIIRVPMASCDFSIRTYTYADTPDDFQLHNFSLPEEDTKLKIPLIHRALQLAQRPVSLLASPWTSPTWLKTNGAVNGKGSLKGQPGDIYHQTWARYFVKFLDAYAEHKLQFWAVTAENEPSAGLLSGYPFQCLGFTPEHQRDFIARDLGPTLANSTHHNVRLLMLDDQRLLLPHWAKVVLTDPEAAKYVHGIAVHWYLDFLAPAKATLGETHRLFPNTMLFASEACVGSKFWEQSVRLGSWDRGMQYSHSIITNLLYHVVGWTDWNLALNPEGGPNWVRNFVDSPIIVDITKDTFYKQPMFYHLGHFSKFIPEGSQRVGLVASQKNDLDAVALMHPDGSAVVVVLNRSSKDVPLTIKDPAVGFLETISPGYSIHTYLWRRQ
Description: Cells seeded in 48-well plates were incubated with the indicated concentrations of compound for 16-24 hours. For the dose-response assays, cells were incubated with the in situ substrate 5-(pentafluorobenzoylamino)fluorescein di-β-D-glucopyranoside (PFBFDβGlu) for 1 hour and subsequently lysed to determine the extent of substrate hydrolysis in the presence of compound. […] Inhibition was determined as the ratio of activity in the presence of compound to that in the absence of compound. […] Cells were washed extensively and incubated in drug-free medium to allow net compound efflux from cells. Cells were then tested for lysosomal GCase activity at 2 hour intervals over a total period of 8 hours following compound removal. The increase in activity over time was fitted with a single exponential function to determine the compound's washout time.

GCase [1] = target: T2, GCase (Homo sapiens, UniProt P04062); assay: Concentration-dependent increase in GCase activity (EC50, Emax); format: cell-based; details: result in words
T2 sequence (P04062 40-536): T1 sequence (P04062 40-536)

GCase [2] = target: T3, GCase (Mus musculus, UniProt P17439); assay: GCase enhancement in tissues of orally dosed mice; format: in vivo, mice (C57BL/6); details: for GCase increase: nine doses over 2 weeks, 24-hour washout
T3 construct: Liver, spleen, lung, and brain tissues were removed; from tissue; host or cells: brain, spleen, liver, lung of C57BL/6 mice
T3 sequence (P17439 20-515): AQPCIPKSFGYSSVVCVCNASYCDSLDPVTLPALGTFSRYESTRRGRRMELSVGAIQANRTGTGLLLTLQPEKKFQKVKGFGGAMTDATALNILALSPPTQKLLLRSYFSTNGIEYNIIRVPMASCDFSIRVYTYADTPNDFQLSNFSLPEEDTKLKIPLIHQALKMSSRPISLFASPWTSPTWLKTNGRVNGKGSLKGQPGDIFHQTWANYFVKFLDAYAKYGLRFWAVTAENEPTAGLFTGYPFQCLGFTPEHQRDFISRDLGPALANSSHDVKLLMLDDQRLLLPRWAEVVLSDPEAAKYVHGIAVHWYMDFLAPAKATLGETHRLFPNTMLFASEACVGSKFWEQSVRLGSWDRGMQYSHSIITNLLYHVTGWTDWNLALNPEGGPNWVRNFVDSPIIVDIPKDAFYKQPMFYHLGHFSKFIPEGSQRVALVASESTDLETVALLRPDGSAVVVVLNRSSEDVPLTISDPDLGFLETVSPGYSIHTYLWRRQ
Description: (§1) The ability of orally administered test compounds (the hydrochloride salt form of Compound A and Compound B) to elevate GCase levels as compared to reference compound, IFG-tartrate, was assessed in mice. […] Seven animals were used per dose. The dosing solutions were prepared in water. Compounds were administered over 2 weeks as follows: week 1, Mon-Fri (On), Sat-Sun (Off); week 2, Mon-Thu (On); necropsy on Friday. Thus, a total of 9 doses (dosing solutions prepared fresh every day) were given to each mouse, with a 24-hour washout between the last dose and necropsy.
(§2) Plasma was collected by spinning blood at 2700 g for 10 minutes at 4° C. Liver, spleen, lung, and brain tissues were removed, washed in cold PBS, blotted dry, flash frozen on dry ice, and stored at −80° C. until analysis. GCase levels were measured by homogenizing approximately 50 mg tissue in 500 μL McIlvane (MI) buffer (100 mM sodium citrate, 200 mM sodium phosphate dibasic, 0.25% sodium taurocholate, and 0.1% Triton X-100, pH 5.2) at pH 5.2 for 3-5 seconds on ice with a micro homogenizer. Homogenates were then incubated at room temperature without and with 2.5 mM conduritol-B-epoxide (CBE) for 30 min. Finally, 3.7 mM 4-methylumbeliferryl-β-glucoside (4-MUG) substrate was added and incubated at 37° C. for 60 min. Reactions were stopped by addition of 0.4 M glycine, pH 10.6. Fluorescence was measured on a plate reader for 1 sec/well using 355 nm excitation and 460 nm emission. Total protein was determined in lysates using the MicroBCA kit according to the manufacturer's instructions. A 4-methylumbelliferone (4-MU) standard curve ranging from 1.0 nM to 50 μM was run in parallel for conversion of raw fluorescence data to absolute GCase activity (in the presence and absence of CBE) and expressed as nanomoles of 4-MU released per milligram of protein per hour (nmol/mg protein/hr). GCase levels and protein levels were calculated using Microsoft Excel (Redmond, Wash.) and GraphPad Prism version 4.02.

[3] = Compound concentration in brain, spleen and plasma samples of GCase enhancement study; format: in vivo, mice (C57BL/6); details: nine doses; for Concentration: 24 hours after last dose
Description: as §1, §2

[4] = Blood brain barrier penetration after oral administration to mice; format: in vivo, mice (C57BL/6); details: single 30 mg/kg (free base equivalent) p.o. dose, FIGS. 1A-C
Description: For this purpose, 8-week old wild-type male mice (C57BL/6) were administered a single 30 mg/kg (free base equivalent) p.o. dose of reference or test compound by gavage (n=3 mice per time point). Dosing solutions were prepared in water. After dosing, mice were euthanized with CO2 at the following time points: 0-, 0.5-, 1-, and 4-hour post-dose. […] Similarly, brains were collected from each mouse. Plasma was derived by spinning whole blood at 2700 g for 10 minutes at 4° C. followed by storage on dry ice. Whole brains were washed in cold PBS to remove contaminating blood, blotted dry, flash frozen on dry ice, and ultimately stored at −80° C. until analysis. To prepare brain samples for analysis, 50-100 mg of tissue was homogenized in […]. Samples were then clarified by centrifugation. Next, 25 μl of the brain homogenate supernatant or 25 μl of plasma were combined with 25 μl of acetonitrile:water (95/5). […] Between 20 and 30 μl sample was injected for analysis. […] When Compound B was analyzed, Compound A was used as internal standard (150.1/130.1). For calculating drug concentrations, raw data for plasma (ng/mL) and brain (ng/g) was converted to nM using the molecular weight of respective compounds and assuming 1 g of tissue is equivalent to 1 mL volume. Concentration as a function of time was plotted in GraphPad Prism version 4.02.

[5] = mice, nine p.o. doses over 2 weeks, result in words
[6] = brain, 10 mg/kg (free base equivalent) p.o.
[7] = spleen, 10 mg/kg (free base equivalent) p.o.

- In Situ Washout (lysosomal GCase): 6.6 ± 0.12 h
- melting point: 200 to 202 °C
SMILES: Cl.O[C@@H]1[C@H](CF)CNC[C@H]1O [Compound A-HCl, (3R,4R,5R)-5-(fluoromethyl)piperidine-3,4-diol hydrochloride]
- effect on GCase activity (GCase [1]): concentration-dependent increase in GCase activity
- enhancement of enzyme activity compared to IFG-tartrate (GCase [1]): enhanced enzyme activity to the same maximum level at much lower concentration
- GCase enhancement at lower doses compared to IFG-tartrate (GCase [2]; [5]): unexpectedly greater than that observed with IFG-tartrate even when far lower doses
- GCase enhancement in brain, spleen, liver and lung compared to control or IFG-tartrate (GCase [2]; [5]): statistically significant greater GCase enhancement in brain, spleen, liver and lung as compared to mice administered control or IFG-tartrate

SMILES: OC[C@H]1CNC[C@@H](O)[C@@H]1O [IFG, (3R,4R,5R)-5-(hydroxymethyl)-3,4-piperidinediol]
- GCase increase (GCase [2]; [6]): 1.5 -fold
- GCase increase (GCase [2]; brain, 100 mg/kg (free base equivalent) p.o., 100 mg/kg): 2.2 -fold and 2.1 -fold
- GCase increase (GCase [2]; [7]): 1.6 -fold
- GCase increase (GCase [2]; spleen, 100 mg/kg (free base equivalent) p.o., 100 mg/kg): 1.9 -fold and 2.0 -fold
- Concentration in GCase assays after dilution (value in parenthesis) ([3]; brain sample, 10 mg/kg p.o.): 0.2 nM
- Concentration in GCase assays after dilution (value in parenthesis) ([3]; brain sample, 100 mg/kg p.o., 100 mg/kg): 0.7 nM and 1.1 nM
- Concentration ([3]; brain, 10 mg/kg p.o.): 49 ± 2.4 nM
- Concentration ([3]; brain, 100 mg/kg p.o., 100 mg/kg): 182 ± 13 nM and 287 ± 74 nM
- Concentration ([3]; plasma, 10 mg/kg p.o.): 67 ± 10 nM
- Concentration in GCase assays after dilution (value in parenthesis) ([3]; spleen sample, 10 mg/kg p.o.): 0.5 nM
- Concentration in GCase assays after dilution (value in parenthesis) ([3]; spleen sample, 100 mg/kg p.o., 100 mg/kg): 2.6 nM and 4.2 nM
- Concentration ([3]; spleen, 10 mg/kg p.o.): 150 ± 12 nM
- Concentration ([3]; spleen, 100 mg/kg p.o., 100 mg/kg): 711 ± 100 nM and 1139 ± 220 nM

- GCase increase (GCase [2]; [6]): 2.5 -fold
- GCase increase (GCase [2]; brain, 100 mg/kg (free base equivalent) p.o.): 3.5 -fold
- GCase increase (GCase [2]; [7]): 1.9 -fold
- GCase increase (GCase [2]; spleen, 100 mg/kg (free base equivalent) p.o.): 2.8 -fold
- Concentration in GCase assays after dilution (value in parenthesis) ([3]; brain sample, 10 mg/kg p.o.): 0.5 nM
- Concentration in GCase assays after dilution (value in parenthesis) ([3]; brain sample, 100 mg/kg p.o.): 3 nM
- Concentration in GCase assays after dilution (value in parenthesis) ([3]; spleen sample, 10 mg/kg p.o.): 0.3 nM
- Concentration in GCase assays after dilution (value in parenthesis) ([3]; spleen sample, 100 mg/kg p.o.): 1.1 nM
SMILES: O[C@@H]1[C@H](CF)CNC[C@H]1O [Compound A, (3R,4R,5R)-5-(fluoromethyl)piperidine-3,4-diol]
- blood brain barrier crossing compared to IFG [4]: crossed the blood brain barrier more readily as compared to IFG
